In patent US20060052390A1, “Treatment of multiple myeloma by p38 MAP kinase and proteasome inhibition” (Scios, Inc., priority 2003, published 2006):
Entries after “also recorded” stand apart in the source; their conditions may differ. Structures can show the parent of a compound that is named as a salt. Residues, ends and D or L forms follow the SMILES beside them. *: point of attachment. Cbz = O=C(OCc1ccccc1)*

How the values were obtained:
MM cells [1] = test: treatment of a patient with multiple myeloma; assay type: in vivo; conditions: in combination with VELCADE
From the text: A patient is diagnosed with multiple myeloma. The patient presents with MM cells with rapid growth rates, which displace osteoblasts, and disrupting the balance of bone creation and destruction. A number of MM-related cytokines, such as IL-6, VEGF, IL-11, and PGE-2 are detectable. […] MM cell growth is inhibited and MM-related cytokine product is reduced. A patient diagnosed with multiple myeloma receives VELCADE and responds well until VELCADE-resistant MM cells develop. Drug resistant MM cells with rapid growth rates begin to populate the bone marrow of the subject. Elevated levels of MM-related cytokines, such as IL-6, VEGF, IL-11, and PGE-2 are again detectable.

MM cells [2] = test: MM cell viability and proliferation with proteasome inhibitor MG-132; assay type: cell-based; conditions: for proliferation: MG-132 alone
MM/BMSC co-cultures = test: MM cell proliferation in MM/BMSC co-cultures with MG-132; assay type: cell-based; conditions: MM cells co-cultured with BMSC; FIG. 7
Method: Thus, proteasome inhibitors such as VELCADE might be limiting their own ability to induce apoptosis of MM cells by inducing growth-supporting activity in the microenvironment. Inhibition of the p38 response by BMSC would counteract this support.
For these studies, U266, IM9 and RPMI8226 cells are incubated with DMSO (−) or with 0.5 μM of a disclosed p38 MAPK inhibitor (+) for 1 hour and cell lysates are immunoblotted with antibodies to phospho-p38 and p38 MAP kinase by Western analysis. U266B1 and RPMI8226 are MM cell lines, and IM9 is an Epstein Barr Virus (EBV)-transformed B cell line with characteristics of MM cells. All can be obtained from American Type Culture Collection (ATCC; Rockville, Md.). All cell lines are maintained in RPMI-1640 (ATCC), supplemented with 10% fetal bovine serum (Hyclone; Logan, Utah), 100 units/ml of penicillin, 100 μg/ml streptomycin and 2 mM L-glutamine (Life Technologies, Inc.; Grand Island, N.Y.). BMSC (Cambrex) are maintained in Myelocult H5100 supplemented with 10^−6 M hydrocortisone (Stem Cell Technologies; Vancouver, B.C.), 100 units/ml of penicillin and 100 μg/ml streptomycin. MM cells are usually seeded at a density of 3×10^4 cells/well in 96-well culture plates. For MM co-cultures, BMSC are first seeded at 1.2×10^4 cells/well in a 96-well plate in Myelocult/hydrocortisone medium for 24 hours prior to the addition of MM cells.

HSP-27 = test: immunodetection of phospho-HSP-27 in MM cells and BMSC; assay type: cell-based
Method: (§1) Total cell lysates are immunoprecipitated with anti-MAPKAPK-2 antibody and subjected to in vitro kinase assays using purified GST-Hsp27 as substrate. To examine Hsp27 phosphorylation in MM and transformed B cells, U266, IM9 and RPMI8226 cells are incubated either with DMSO or with 0.5 μM of a p38 MAPK inhibitor and cell lysates are immunoblotted with antibodies to phospho-Hsp27 (Ser 82) and Hsp27.
U266, IM9 and RPMI8226 cells are incubated with 0.5 μM of the p38 MAPK inhibitor for 1hour and Hsp27 proteins are immunoprecipitated with agarose-conjugated Hsp27 antibody, followed by immunoblotting with anti-phospho Hsp27 (Ser 78) antibody.
(§2) Specific antibodies to p38 MAP kinase are from Santa Cruz Biotechnology (Santa Cruz, Calif.). Antibodies to phospho-p38 MAP kinase (T180/Y182) and phospho-Hsp27 (S82) are from Cell Signaling (Beverly, Mass.). Antibodies to Hsp27 and phospho-Hsp27 (S78) are from Upstate Biotechnology (Lake Placid, N.Y.). Anti-MAPKAPK-2 is from StressGen (San Diego, Calif.) while anti-GAPDH is from Biogenesis Ltd. (Poole, UK).

RANKL mRNA = RANKL mRNA induction in BMSC and MM/BMSC cultures; assay type: cell-based; conditions: 100 nM
Method: In addition, 100 nM of these p38 MAPK inhibitors blocks the weaker induction of RANKL by IL-6 in BMSC.

Hsp27 = test: Western blot of heat shock protein levels in MM cells; assay type: cell-based
Method: as §1
Cells are collected at various times and lysates are examined by Western Blot analysis using specific antibodies against particular proteins, with GAPDH as loading control. Specific antibodies to Hsp70 and Hsp90 are from Santa Cruz Biotechnology (Santa Cruz, Calif.).
The Western blots are examined for the total Hsp27 and phospho-Hsp27 levels at three different exposure times. […] This is consistent with observations made previously in MM.1S cells. […] This phenomenon appears to be unique to Hsp27 since a decrease in the levels of Hsp70 or Hsp90 in these same samples is not observed. […] The decrease of phospho-Hsp27 levels in the PS-341-treated cells is commensurate with the decrease of total Hsp27 protein in these cells.

MAPKAPK-2 = MAPKAPK-2 in vitro kinase assay on immunoprecipitates of cell lysates, GST-Hsp27 substrate; assay type: cell-based; conditions: 0.5 μM
Method: as §1

p38α MAPK = target: T1, p38α MAPK (Homo sapiens, UniProt Q16539); test: p38α phospho-specific immunodetection in MM cells and BMSC; assay type: cell-based; conditions: BMSC treated with MG-132
T1 construct: endogenous in cells; host or cells: U266, IM9, RPMI8226 cells; BMSC
T1 sequence (Q16539 whole entry): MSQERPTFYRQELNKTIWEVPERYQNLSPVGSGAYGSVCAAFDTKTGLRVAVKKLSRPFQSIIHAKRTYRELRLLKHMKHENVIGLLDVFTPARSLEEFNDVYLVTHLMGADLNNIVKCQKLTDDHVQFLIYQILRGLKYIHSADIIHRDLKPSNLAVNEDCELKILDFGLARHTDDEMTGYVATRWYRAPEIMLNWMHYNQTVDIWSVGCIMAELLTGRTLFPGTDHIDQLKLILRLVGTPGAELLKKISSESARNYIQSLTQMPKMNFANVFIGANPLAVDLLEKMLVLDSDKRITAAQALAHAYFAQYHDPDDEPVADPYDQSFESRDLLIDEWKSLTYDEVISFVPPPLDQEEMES
From the text: as §2

[3] = system: calpains, cathepsins, and other lysosomal enzymes; conditions: cited from earlier work
[4] = MM patients; cited from earlier work
RPMI8226 cells = test: apoptosis by Annexin V-PE flow cytometry in RPMI8226 cells; assay type: cell-based
Method: Cells are collected at indicated times and assayed.
(§3) Detection of apoptotic cells was performed by staining with Annexin V-Phycoerythrin (PE) and 7-Amino Actinomycin D (7-AAD) (BD Pharmigen; San Diego, Calif.). Samples are analyzed by dual color flow cytometry using a FACScan laser flow cytometer and Cell Quest software (Becton Dickinson; San Jose, Calif.). 7-AAD is a nucleic acid dye that is used to exclude nonviable cells in flow cytometric assays. Cells that are Annexin V-PE positive and 7-AAD negative are considered early apoptotic. Antibodies to caspase-3, -6, -7, -8, -9, and PARP are from Cell Signaling (Beverly, Mass.).

caspases and PARP = test: Western blot of caspase activation and PARP cleavage in MM cells; assay type: cell-based; conditions: RPMI8226; increasing duration of PS-341 treatment
Method: as §3
Protein lysates from RPMI8226 cells obtained at these time points are collected in parallel and examined for Hsp27 levels, caspase activation and PARP cleavage by Western blot analysis.

[5] = RPMI8226, 10 nM PS-341, 8 hours

## C[C@@H]1CN(Cc2ccc(F)cc2)[C@@H](C)CN1C(=O)c1cc2c(C(=O)C(=O)N(C)C)cn(C)c2cc1Cl [Compound 57 hydrochloride salt]
MM cells [1]; patient with VELCADE-resistant MM
  sensitivity of the MM cells to VELCADE: restores the sensitivity
MM cells [1]; patient
  MM-related cytokine product: reduced
MM cells [1]; patient, listed as Compound 57 in the hydrochloric salt form
  MM cell growth: again inhibited

## C[C@@H]1CN(Cc2ccc(F)cc2)[C@@H](C)CN1C(=O)c1cc2c(C(=O)C(=O)N(C)C)cn(C)c2cc1Cl [Compound 57]
MM cells [2]; MG-132 in the presence of the p38 MAPK inhibitor, related to the dose of both
  IM9 proliferation: reduced or entirely blocked
MM cells [2]; co-exposure with MG-132, MM cells, FIG. 6
  effect on the reduction of MM cell viability and proliferation caused by MG-132: enhanced the reduction of MM cell viability and proliferation; also recorded: enhances the anti-proliferative effect
MM/BMSC co-cultures
  effect on the ability of MG-132 to reduce MM cell proliferation: enhanced the ability of MG-132 to reduce MM cell proliferation; also recorded: enhances the anti-proliferative effect
HSP-27; BMSC
  phosphorylation of HSP-27: blocked phosphorylation of HSP-27 completely
HSP-27; MM cells
  phosphorylation of HSP-27: blocked phosphorylation of HSP-27 completely
HSP-27; U266, IM9 and RPMI8226, 0.5 μM, cell lysates or immunoprecipitation
  Hsp27 phosphorylation: inhibits
HSP-27; both drugs (PS-341 and p38 MAPK inhibitor), all time points
  Hsp27 phosphorylation: complete inhibition
RANKL mRNA; BMSC
  induction of RANKL by IL-6: blocks
RANKL mRNA; BMSC and MM/BMSC cultures, FIG. 5
  induction of RANKL mRNA by TGFβ and IL-1: blocked this induction
RANKL mRNA; FIG. 5
  basal expression of RANKL mRNA: blocked
Hsp27; 0.5 μM with 10 nM PS-341, 12 and 16 hours, RPMI8226 and IM9 cells
  total Hsp27: enhanced reduction
Hsp27; inhibitor alone, even after prolonged incubation
  total Hsp27 levels: does not affect
MAPKAPK-2
  activity of downstream substrate MAPKAPK-2: suppresses

## CC(C)C[C@@H](C=O)NC(=O)[C@H](CC(C)C)NC(=O)[C@H](CC(C)C)NC(=O)OCc1ccccc1 [MG-132, Carbobenzoxy-L-Leucyl-L-Leucyl-L-Leucinal, reference compound] (Cbz-Leu-Leu-Leu-aldehyde)
MM cells [2]; HS Sultan MM cells
  proliferation: block completely
MM cells [2]; IM9 MM cells
  sensitivity of proliferation to MG-132 alone: not sensitive
MM cells [2]; U266 MM cells
  proliferation: block completely
p38α MAPK
  activation of p38: resulted in activation of p38
[3]
  concentrations with activity against calpains, cathepsins and other lysosomal enzymes, above those used in the disclosed experiments: ≥ 10 -fold

## CC(C)C[C@H](NC(=O)[C@H](Cc1ccccc1)NC(=O)c1cnccn1)B(O)O [PS-341]
[4]
  clinically observed circulating concentration: 40 to 100 nM
Hsp27; RPMI8226, 10 nM PS-341, 12 and 16 hours
  Hsp27 protein levels: reduced
Hsp27; [5]
  Hsp27 expression: induced
  Hsp70 expression: induced
Hsp27; RPMI8226, 10 nM PS-341, same samples
  decrease in the levels of Hsp70 or Hsp90: not observed
RPMI8226 cells; 10 nM PS-341, 8 hours
  apoptotic cells: early apoptotic cells are apparent
RPMI8226 cells; 10 nM PS-341, 12 hours
  apoptotic cells: about half the cells
RPMI8226 cells; 10 nM PS-341, 16 hours
  apoptotic cells: most
Caspases and PARP
  PARP cleavage: proportional increase
  activation or cleavage of procaspases-8, -9, -3, -6, and -7: successively increasing activation or cleavage
